Laboratory results reported in patent US8426406B2, “Glucocorticoid receptor agonist comprising 2,2,4-trimethyl-6-phenyl-1,2-dihydroquinoline derivatives having substituted oxy group” (Santen Pharmaceutical Co., Ltd., priority 2008, dated 2013).

Legend:
[1] = test system: IL-6 production induced by lipopolysaccharide (LPS) in human corneal epithelial cells; experiment: Evaluation test for GR agonist activity: inhibition of LPS-induced IL-6 production in human corneal epithelial cells (HCE-T); assay type: cell-based; settings: Corneal epithelial cell, 10 μL of 100 μM test compound solution per well, 4 hours incubation, efficacy relative to DEX
Procedure, shortened: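 SV40-immortalized HCE-T cells were treated with test compound (100 μM solution, stock before dilution into well) plus LPS (1 μg/mL solution, likewise pre-dilution) for 4 hours in 10% FBS-DMEM/F12. IL-6 in supernatants was measured by HTRF. Inhibition was calculated relative to LPS-plus-DMSO and no-LPS controls, and efficacy was expressed as % of DEX inhibition.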

[2] = test system: atopic dermatitis model in mice; experiment: Inhibitory effect test on the vascular hyper-permeability in the atopic dermatitis model; assay type: in vivo; settings: DNFB, 1% (W/W) test compound ointment on ears, 21 times in total, dye leakage vs vehicle, 12 ears in 6 animals
Experimental: In order to evaluate the effects in atopic dermatitis of the present compound, the inhibitory effects of test compound on the vascular hyper-permeability in the atopic dermatitis model in mice were investigated. Procedure of atopic dermatitis model and estimation method was used according to the method of Nagai et al. (J. Pharmacol. Exp. Ther., 283: 321-327 (1997)) with modification. The inhibitory effects were calculated based on dye leakage in vehicle-treated group (control) and test compound-treated group.
The test compound was mixed with white petrolatum, whereby a 1% (W/W) test compound ointment was prepared.
1) Mice were challenged by topical instillation of 25 μL of 0.15% DNFB solution on both sides of both ears once a week for 5 weeks.
2) Test compounds were administered by topical instillation of 25 μL ointments on each side of both ears five times a week from the previous day of the 1st DNFB painting to the previous day of 5th DNFB painting, 21 times in total. Mice were painted with the test compound ointment onto the ear, 25 μL to the inner and 25 μL to outer side. In vehicle-treated group (control group), white petrolatum was administered by topical instillation in the same way.
3) Dyes, a solution of 0.2% Evans blue, were administered to mice intravenously just after the 5th DNFB painting. Ear tissues were removed 2 hours after the intravenous injection of dyes. Then each removed tissue was put into dye extract and dye was extracted. The absorbance of each extract was determined with a spectrophotometer. The amount of dye leakage was calculated from obtained absorbance. The inhibition ratio of the vascular hyper-permeability associated with atopic dermatitis of test compound-treatment group was calculated according to the following equation 1. The inhibition ratio of the vascular hyper-permeability of test compound-treatment group(%)=(1−Ax/Ao)×100 (Calculation Equation 1) Ao: the amount of dye leakage in vehicle-treated group (Control) Ax: the amount of dye leakage in test compound-treated group (Result and Discussion)

Structure (SMILES): COc1cc(OC(=O)c2ccsc2)ccc1-c1ccc2c(c1COc1cc(F)ccc1C)C(C)=CC(C)(C)N2 [Compound 1-12, 5-(5-Fluoro-2-methylphenoxymethyl)-6-[2-methoxy-4-(thiophen-3-ylcarbonyloxy)phenyl]-2,2,4-trimethyl-1,2-dihydroquinoline]
- Emax [1]: 85%
- Inhibition ratio of the vascular hyper-permeability (%) [2]: 22%

Structure (SMILES): COc1cc(OC(=O)c2ccco2)ccc1-c1ccc2c(c1COc1cc(F)ccc1C)C(C)=CC(C)(C)N2 [Compound 1-13, 5-(5-Fluoro-2-methylphenoxymethyl)-6-[4-(furan-2-ylcarbonyloxy)-2-methoxyphenyl]-2,2,4-trimethyl-1,2-dihydroquinoline]
- Emax [1]: 94%
- Inhibition ratio of the vascular hyper-permeability (%) [2]: 13%

Structure (SMILES): COc1cc(OC(=O)c2cccnc2)ccc1-c1ccc2c(c1COc1cc([N+](=O)[O-])ccc1C)C(C)=CC(C)(C)N2 [Compound 1-72, 6-[2-Methoxy-4-(pyridin-3-ylcarbonyloxy)phenyl]-5-(2-methyl-5-nitrophenoxymethyl)-2,2,4-trimethyl-1,2-dihydroquinoline]
- Emax [1]: 82%
- Inhibition ratio of the vascular hyper-permeability (%) [2]: 15%

Structure (SMILES): CCCS(=O)(=O)Oc1ccc(-c2ccc3c(c2CNc2ccccc2OC)C(C)=CC(C)(C)N3)c(OC)c1 [Compound 4-18, 5-(2-Methoxyphenylaminomethyl)-6-(2-methoxy-4-propylsulfonyloxyphenyl)-2,2,4-trimethyl-1,2-dihydroquinoline]
- Emax [1]: 89%
- Inhibition ratio of the vascular hyper-permeability (%) [2]: 30%
